Reference: ChEMBL document CHEMBL3826966, “A chromatography-free isolation of rohitukine from leaves of Dysoxylum binectariferum: Evaluation for in vitro cytotoxicity, Cdk inhibition and physicochemical properties” (Bioorg Med Chem Lett, 2016)
Values after ≈ are worked out from the molar mass of the structure shown.

Assays:
[1] = Thermodynamic equilibrium solubility in water at 120 ug/ml by HPLC analysis; format: physicochemical; details: read-out: Therm_solubility
[2] = target: NUAK family SNF1-like kinase 1 (Homo sapiens) (UniProt O60285); assay: Inhibition of human NUAK1 (2 to 660 residues) assessed as remaining enzyme activity at 50 uM after 30 mins by 33P-ATP filter-binding assay
[3] = Cytotoxicity against human DU145 cells assessed as cell growth inhibition after 48 hrs by MTT assay; format: functional; details: DU-145, 48 h
[4] = target: Eukaryotic translation initiation factor 2-alpha kinase 3 (Homo sapiens) (UniProt Q9NZJ5); assay: Inhibition of human EIF2AK3 (536 to 1116 residues) assessed as remaining enzyme activity at 50 uM after 30 mins by 33P-ATP filter-binding assay
Sequence of Eukaryotic translation initiation factor 2-alpha kinase 3 (Homo sapiens) (Q9NZJ5 whole entry, the tested form may be a part): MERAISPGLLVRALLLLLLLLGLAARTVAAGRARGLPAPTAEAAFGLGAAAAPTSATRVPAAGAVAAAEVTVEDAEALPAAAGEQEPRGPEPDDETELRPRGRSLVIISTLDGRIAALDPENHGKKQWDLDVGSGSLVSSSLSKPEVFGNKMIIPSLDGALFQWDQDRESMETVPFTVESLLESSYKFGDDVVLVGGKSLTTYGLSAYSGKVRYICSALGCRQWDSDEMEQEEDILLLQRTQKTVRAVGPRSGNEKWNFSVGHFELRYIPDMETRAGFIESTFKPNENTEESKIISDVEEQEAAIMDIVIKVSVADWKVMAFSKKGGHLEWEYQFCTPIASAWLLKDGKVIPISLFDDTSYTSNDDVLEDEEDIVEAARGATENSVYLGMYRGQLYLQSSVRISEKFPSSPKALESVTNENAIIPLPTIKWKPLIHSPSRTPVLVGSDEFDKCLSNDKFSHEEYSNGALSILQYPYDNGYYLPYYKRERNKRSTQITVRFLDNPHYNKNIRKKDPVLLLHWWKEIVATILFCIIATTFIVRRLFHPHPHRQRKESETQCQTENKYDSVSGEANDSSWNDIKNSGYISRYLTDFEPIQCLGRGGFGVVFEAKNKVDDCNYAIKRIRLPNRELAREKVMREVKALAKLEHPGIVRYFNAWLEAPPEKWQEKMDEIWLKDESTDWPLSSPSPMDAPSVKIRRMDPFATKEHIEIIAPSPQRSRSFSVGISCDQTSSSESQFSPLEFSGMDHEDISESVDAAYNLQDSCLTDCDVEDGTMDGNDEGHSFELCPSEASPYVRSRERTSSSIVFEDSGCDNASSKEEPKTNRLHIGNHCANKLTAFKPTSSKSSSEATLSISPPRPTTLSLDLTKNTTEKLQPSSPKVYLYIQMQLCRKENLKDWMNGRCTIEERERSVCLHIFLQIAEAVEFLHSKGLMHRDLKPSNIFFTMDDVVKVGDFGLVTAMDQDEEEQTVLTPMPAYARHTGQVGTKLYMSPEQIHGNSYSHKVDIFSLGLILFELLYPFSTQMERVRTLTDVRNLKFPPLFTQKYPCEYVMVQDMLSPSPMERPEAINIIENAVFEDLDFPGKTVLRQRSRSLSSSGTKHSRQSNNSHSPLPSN

[5] = target: Ribosomal protein S6 kinase alpha-5 (Homo sapiens) (UniProt O75582); assay: Inhibition of human MSK1 (2 to 802 residues) assessed as remaining enzyme activity at 50 uM after 30 mins by 33P-ATP filter-binding assay
[6] = target: Ephrin type-B receptor 4 (Homo sapiens) (UniProt P54760); assay: Inhibition of human EPHB4 (561 to 997 residues) assessed as remaining enzyme activity at 50 uM after 30 mins by 33P-ATP filter-binding assay
[7] = target: Misshapen-like kinase 1 (Homo sapiens) (UniProt Q8N4C8); assay: Inhibition of human MINK1 (1 to 320 residues) assessed as remaining enzyme activity at 50 uM after 30 mins by 33P-ATP filter-binding assay
[8] = target: 3-phosphoinositide-dependent protein kinase 1 (Homo sapiens) (UniProt O15530); assay: Inhibition of human PDK1 (52 to 556 residues) assessed as remaining enzyme activity at 50 uM after 30 mins by 33P-ATP filter-binding assay
T47D = assay: Cytotoxicity against human T47D cells assessed as cell growth inhibition after 48 hrs by MTT assay; format: functional
[9] = target: Mitogen-activated protein kinase 14 (Homo sapiens) (UniProt Q16539); assay: Inhibition of human p38alpha MAPK (1-360 residues) assessed as remaining enzyme activity at 50 uM after 30 mins by 33P-ATP filter-binding assay
[10] = target: Mitogen-activated protein kinase kinase kinase 11 (Homo sapiens) (UniProt Q16584); assay: Inhibition of human MLK3 (96 to 386 residues) assessed as remaining enzyme activity at 50 uM after 30 mins by 33P-ATP filter-binding assay
[11] = Cell cycle arrest in human HL60 cells assessed as accumulation at S phase at 10 uM (reference value: 36 %); format: functional, cell-based; details: HL-60
[12] = target: Serine/threonine-protein kinase PAK 6 (Homo sapiens) (UniProt Q9NQU5); assay: Inhibition of human PAK6 (2 to 681 residues) assessed as remaining enzyme activity at 50 uM after 30 mins by 33P-ATP filter-binding assay
Sequence of Serine/threonine-protein kinase PAK 6 (Homo sapiens) (Q9NQU5 whole entry, looked up, the tested form may be a part, canonical isoform): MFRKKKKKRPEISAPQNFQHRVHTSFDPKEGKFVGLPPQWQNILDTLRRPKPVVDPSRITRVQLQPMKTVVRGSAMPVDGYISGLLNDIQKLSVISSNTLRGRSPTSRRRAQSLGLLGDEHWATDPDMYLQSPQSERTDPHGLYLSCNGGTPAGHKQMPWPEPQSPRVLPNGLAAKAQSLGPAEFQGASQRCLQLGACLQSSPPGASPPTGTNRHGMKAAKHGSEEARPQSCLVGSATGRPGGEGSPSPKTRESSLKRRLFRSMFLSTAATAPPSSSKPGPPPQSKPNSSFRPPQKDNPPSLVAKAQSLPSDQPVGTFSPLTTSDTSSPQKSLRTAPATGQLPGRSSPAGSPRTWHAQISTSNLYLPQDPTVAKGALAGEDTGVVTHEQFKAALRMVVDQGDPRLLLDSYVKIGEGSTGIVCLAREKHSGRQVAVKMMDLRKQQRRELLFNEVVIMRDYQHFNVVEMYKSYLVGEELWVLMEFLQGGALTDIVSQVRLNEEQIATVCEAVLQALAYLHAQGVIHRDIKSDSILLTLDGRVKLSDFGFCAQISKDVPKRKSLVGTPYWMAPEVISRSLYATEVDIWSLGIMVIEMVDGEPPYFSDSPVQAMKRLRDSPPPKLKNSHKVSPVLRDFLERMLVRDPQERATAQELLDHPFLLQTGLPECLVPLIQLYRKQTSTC

[13] = target: Casein kinase I isoform gamma-2 (Homo sapiens) (UniProt P78368); assay: Inhibition of human CK1gamma2 (1 to 415 residues) assessed as remaining enzyme activity at 50 uM after 30 mins by 33P-ATP filter-binding assay
Sequence of Casein kinase I isoform gamma-2 (Homo sapiens) (P78368 whole entry, looked up, the tested form may be a part, canonical isoform): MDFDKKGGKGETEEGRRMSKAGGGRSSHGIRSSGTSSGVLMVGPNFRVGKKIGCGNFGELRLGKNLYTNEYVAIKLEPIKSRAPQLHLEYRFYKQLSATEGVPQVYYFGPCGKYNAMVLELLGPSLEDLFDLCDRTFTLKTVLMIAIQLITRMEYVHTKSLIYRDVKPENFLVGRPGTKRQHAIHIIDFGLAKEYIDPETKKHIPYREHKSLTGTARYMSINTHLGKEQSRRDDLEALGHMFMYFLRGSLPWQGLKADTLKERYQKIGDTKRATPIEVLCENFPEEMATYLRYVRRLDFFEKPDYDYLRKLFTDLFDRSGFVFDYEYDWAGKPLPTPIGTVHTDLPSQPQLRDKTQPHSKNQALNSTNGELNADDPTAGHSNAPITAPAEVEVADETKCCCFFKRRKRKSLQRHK

[14] = target: Mitogen-activated protein kinase 13 (Homo sapiens) (UniProt O15264); assay: Inhibition of human p38delta MAPK (1 to 365 residues) assessed as remaining enzyme activity at 50 uM after 30 mins by 33P-ATP filter-binding assay
[15] = target: SRSF protein kinase 1 (Homo sapiens) (UniProt Q96SB4); assay: Inhibition of human SRPK1 (2 to 654 residues) assessed as remaining enzyme activity at 50 uM after 30 mins by 33P-ATP filter-binding assay
Sequence of SRSF protein kinase 1 (Homo sapiens) (Q96SB4 whole entry, the tested form may be a part): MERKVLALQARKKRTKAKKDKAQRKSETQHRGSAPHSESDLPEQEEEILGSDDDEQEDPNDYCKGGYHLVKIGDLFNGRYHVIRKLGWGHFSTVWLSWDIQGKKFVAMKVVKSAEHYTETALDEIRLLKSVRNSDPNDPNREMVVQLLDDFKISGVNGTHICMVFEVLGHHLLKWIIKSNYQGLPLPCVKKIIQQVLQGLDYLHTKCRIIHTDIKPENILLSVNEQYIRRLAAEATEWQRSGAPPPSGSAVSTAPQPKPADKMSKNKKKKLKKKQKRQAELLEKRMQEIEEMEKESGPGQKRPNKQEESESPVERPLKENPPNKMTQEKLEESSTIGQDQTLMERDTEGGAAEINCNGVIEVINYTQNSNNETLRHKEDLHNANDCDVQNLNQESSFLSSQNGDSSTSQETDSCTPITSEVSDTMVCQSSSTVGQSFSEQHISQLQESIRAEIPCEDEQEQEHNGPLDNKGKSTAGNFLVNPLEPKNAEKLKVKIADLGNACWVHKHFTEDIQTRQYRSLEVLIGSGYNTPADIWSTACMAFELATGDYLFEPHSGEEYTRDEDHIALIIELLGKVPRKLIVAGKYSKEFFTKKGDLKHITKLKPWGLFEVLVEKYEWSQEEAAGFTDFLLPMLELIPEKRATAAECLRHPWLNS

[16] = target: Phosphorylase kinase (Homo sapiens) (UniProt P15735+P46020+P46019+Q93100+Q16816); assay: Inhibition of human PHK assessed as remaining enzyme activity at 50 uM after 30 mins by 33P-ATP filter-binding assay; format: protein-complex assay
[17] = target: Tyrosine-protein kinase Yes (Homo sapiens) (UniProt P07947); assay: Inhibition of human YES1 (1 to 543 residues) assessed as remaining enzyme activity at 50 uM after 30 mins by 33P-ATP filter-binding assay
[18] = target: MAP kinase-interacting serine/threonine-protein kinase 1 (Homo sapiens) (UniProt Q9BUB5); assay: Inhibition of human MNK1 (2 to 424 residues) assessed as remaining enzyme activity at 50 uM after 30 mins by 33P-ATP filter-binding assay
HL-60 = assay: Induction of apoptosis in human HL60 cells assessed as apoptotic cells at 5 uM (reference value: 1 %); format: functional
[19] = target: Tyrosine-protein kinase Lck (Homo sapiens) (UniProt P06239); assay: Inhibition of human LCK (2 to 509 residues) assessed as remaining enzyme activity at 50 uM after 30 mins by 33P-ATP filter-binding assay
Sequence of Tyrosine-protein kinase Lck (Homo sapiens) (P06239 2-509 limits assumed): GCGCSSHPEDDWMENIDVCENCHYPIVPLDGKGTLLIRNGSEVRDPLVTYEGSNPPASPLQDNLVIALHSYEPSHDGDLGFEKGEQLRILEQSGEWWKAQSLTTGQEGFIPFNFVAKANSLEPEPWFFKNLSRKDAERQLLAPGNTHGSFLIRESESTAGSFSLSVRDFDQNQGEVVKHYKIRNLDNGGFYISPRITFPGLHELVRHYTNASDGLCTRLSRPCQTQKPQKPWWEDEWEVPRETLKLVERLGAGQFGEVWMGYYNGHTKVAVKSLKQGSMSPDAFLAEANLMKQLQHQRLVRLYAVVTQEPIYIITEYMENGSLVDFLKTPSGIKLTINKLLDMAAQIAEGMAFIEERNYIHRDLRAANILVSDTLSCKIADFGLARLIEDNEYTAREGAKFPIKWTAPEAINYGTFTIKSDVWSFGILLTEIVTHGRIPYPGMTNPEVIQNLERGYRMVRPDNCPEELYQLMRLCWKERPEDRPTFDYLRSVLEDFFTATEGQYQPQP

[20] = target: Protein kinase C zeta type (Homo sapiens) (UniProt Q05513); assay: Inhibition of human PKCzeta (2 to 592 residues) assessed as remaining enzyme activity at 50 uM after 30 mins by 33P-ATP filter-binding assay
Sequence of Protein kinase C zeta type (Homo sapiens) (Q05513 whole entry, the tested form may be a part): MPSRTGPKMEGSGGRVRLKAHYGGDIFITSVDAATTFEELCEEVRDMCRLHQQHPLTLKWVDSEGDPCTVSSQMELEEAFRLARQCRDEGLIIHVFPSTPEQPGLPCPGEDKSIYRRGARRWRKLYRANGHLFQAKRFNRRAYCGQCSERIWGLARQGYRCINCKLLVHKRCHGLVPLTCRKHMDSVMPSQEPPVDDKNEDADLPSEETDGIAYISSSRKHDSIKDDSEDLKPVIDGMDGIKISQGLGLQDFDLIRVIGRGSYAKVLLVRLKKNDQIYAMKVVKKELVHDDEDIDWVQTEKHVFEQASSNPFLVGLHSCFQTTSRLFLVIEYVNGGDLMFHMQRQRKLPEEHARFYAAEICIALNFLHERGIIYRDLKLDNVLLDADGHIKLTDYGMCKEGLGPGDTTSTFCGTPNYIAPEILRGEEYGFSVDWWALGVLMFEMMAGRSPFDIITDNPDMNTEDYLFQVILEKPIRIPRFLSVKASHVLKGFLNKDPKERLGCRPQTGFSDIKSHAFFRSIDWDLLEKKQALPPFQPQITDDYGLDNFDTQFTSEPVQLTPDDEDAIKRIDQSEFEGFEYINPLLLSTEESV

[21] = target: Serine/threonine-protein kinase WNK1 (Homo sapiens) (UniProt Q9H4A3); assay: Inhibition of human WNK1 (1 to 661 residues) assessed as remaining enzyme activity at 50 uM after 30 mins by 33P-ATP filter-binding assay
[22] = target: Tau-tubulin kinase 1 (Homo sapiens) (UniProt Q5TCY1); assay: Inhibition of human TTBK1 (1 to 1321 residues) assessed as remaining enzyme activity at 50 uM after 30 mins by 33P-ATP filter-binding assay
[23] = target: Serine/threonine-protein kinase TBK1 (Homo sapiens) (UniProt Q9UHD2); assay: Inhibition of human TBK1 (1 to 729 residues) assessed as remaining enzyme activity at 50 uM after 30 mins by 33P-ATP filter-binding assay
Sequence of Serine/threonine-protein kinase TBK1 (Homo sapiens) (Q9UHD2 whole entry, the tested form may be a part): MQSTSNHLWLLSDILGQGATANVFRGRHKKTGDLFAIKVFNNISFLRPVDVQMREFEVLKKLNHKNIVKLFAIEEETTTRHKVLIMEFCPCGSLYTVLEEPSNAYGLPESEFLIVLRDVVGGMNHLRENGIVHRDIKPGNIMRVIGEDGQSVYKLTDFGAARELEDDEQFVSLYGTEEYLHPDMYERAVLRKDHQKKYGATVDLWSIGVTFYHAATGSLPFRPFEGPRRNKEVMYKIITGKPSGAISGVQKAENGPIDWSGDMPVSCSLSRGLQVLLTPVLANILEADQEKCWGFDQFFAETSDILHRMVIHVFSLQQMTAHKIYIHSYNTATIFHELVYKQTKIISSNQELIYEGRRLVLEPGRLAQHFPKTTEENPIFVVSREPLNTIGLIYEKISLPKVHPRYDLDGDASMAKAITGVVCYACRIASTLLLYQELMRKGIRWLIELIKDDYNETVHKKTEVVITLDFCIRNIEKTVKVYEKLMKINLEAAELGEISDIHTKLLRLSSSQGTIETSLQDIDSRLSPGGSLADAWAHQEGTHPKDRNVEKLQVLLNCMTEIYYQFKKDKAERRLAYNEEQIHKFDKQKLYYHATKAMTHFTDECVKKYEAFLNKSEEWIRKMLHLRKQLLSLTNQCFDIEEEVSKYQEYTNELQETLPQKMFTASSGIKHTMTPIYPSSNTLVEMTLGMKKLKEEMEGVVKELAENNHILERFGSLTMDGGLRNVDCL

[24] = target: Mitogen-activated protein kinase 15 (Homo sapiens) (UniProt Q8TD08); assay: Inhibition of human ERK8 (2 to 544 residues) assessed as remaining enzyme activity at 50 uM after 30 mins by 33P-ATP filter-binding assay
[25] = Thermodynamic equilibrium solubility in stimulated intestinal fluid at 120 ug/ml at pH 6.8 by HPLC analysis; format: ADME; details: simulated intestinal fluid, read-out: Therm_solubility
[26] = target: Mitogen-activated protein kinase 1 (Homo sapiens) (UniProt P28482); assay: Inhibition of human ERK2 (2 to 360 residues) assessed as remaining enzyme activity at 50 uM after 30 mins by 33P-ATP filter-binding assay
CDK2/Cyclin A2 = CDK2/Cyclin A2 (Homo sapiens, UniProt P24941); assay: Inhibition of human Cdk2/cyclin A using histone H1 substrate after 30 mins by 33P-ATP filter-binding assay; format: protein-complex assay
[27] = Cytotoxicity against human FR2 cells assessed as cell growth inhibition after 48 hrs by MTT assay; format: cell-based
[28] = Partition coefficient, logP of the compound in water/PBS buffer at 25 degC by retention time method; format: physicochemical

Cc1cc(=O)c2c(O)cc(O)c([C@H]3CCN(C)C[C@H]3O)c2o1 [ROHITUKINE]
solubility thermodynamic [1]: 10.2 mg/mL (≈ 33.6 mM) | Activity [2]: 52% | GI50 [3]: 26 µM | Activity [4]: 82% | Activity [5]: 30% | Activity [6]: 84% | Activity [7]: 73% | Activity [8]: 90% | GI50 (T47D): 24 µM | Activity [9]: 69% | Activity [10]: 58% | Activity [11]: 48% | Activity [12]: 79% | Activity [13]: 92% | Activity [14]: 16% | Activity [15]: 40% | Activity [16]: 23% | Activity [17]: 57% | Activity [18]: 88% | Activity (HL-60): 4% | Activity [19]: 45% | Activity [20]: 118% | Activity [21]: 100% | Activity [22]: 82% | Activity [23]: 55% | Activity [24]: 19% | solubility thermodynamic [25]: 18.9 mg/mL (≈ 61.9 mM) | Activity [26]: 90% | IC50 (CDK2/Cyclin A2): 7.3 µM | GI50 at 48 h [27]: > 50 µM | logP [28]: 1.01
